# In US20240082228A1, “SARS-COV-2 THERAPEUTICS” (priority 2021, published 2024):
# Values joined by “and” are separate entries in the source; they are usually repeats but may differ in a detail not shown here. Identical values can stand only once. Like-named read-outs stand apart in the source and are kept apart here.
# Legend:
# SARS-CoV-2 = test: microbe, parasite or virus in culture; type: cell-based; conditions: for % Infection (1 uM) / % Infection (5 uM): single replicate of triplicate; for Normalized Infection (1 uM) / log2FC Infection (1 uM) / Normalized Infection (5 uM) / log2FC Infection (5 uM) / activity at 1 µM / activity at 5 µM: single replicate, relative to negative control DMSO; for activity at 1 µM: Severe acute respiratory syndrome coronavirus 2, 1 uM, read-out: Normalized Infection (1 uM); for activity at 5 µM: Severe acute respiratory syndrome coronavirus 2, 5 uM, read-out: Normalized Infection (5 uM)
# [1] = for Average Cell Number (1 uM) / Cell Number (1 uM) / Normalized Cell Number (1 uM): compound at 1 uM; for Average Cell Number (1 uM) / Average Cell Number (5 uM): average of normalized cell number, n=3, relative to DMSO; for Cell Number (1 uM) / Normalized Cell Number (1 uM) / Cell Number (5 uM) / Normalized Cell Number (5 uM): single replicate; for Cell Number (1 uM) / Cell Number (5 uM): raw cell count; for Normalized Cell Number (1 uM) / Normalized Cell Number (5 uM): relative to negative control DMSO; for Average Cell Number (5 uM) / Cell Number (5 uM) / Normalized Cell Number (5 uM): compound at 5 uM
# [2] = 1 uM, average log2FC infection (n=3) relative to DMSO
# [3] = 5 uM, average log2FC infection (n=3) relative to DMSO
smiles,measurement,setting,value
"O=C(c1ccc(F)cc1)N1CCC[C@H](c2nc(-c3ccc(F)cc3)no2)C1 [ADX-47273, adx-47273]",Average Infection (1 uM),SARS-CoV-2,−0.4315
same,Average Infection (5 uM),SARS-CoV-2,−0.3579
same,"HIT (2 Std, 1 uM)",SARS-CoV-2; 1 uM,HIT
same,% Infection (1 uM),SARS-CoV-2; 1 uM,21.77% and 18.58% and 18.27%
same,Normalized Infection (1 uM),SARS-CoV-2; 1 uM,0.8288 and 0.7074 and 0.6954
same,log2FC Infection (1 uM),SARS-CoV-2; 1 uM,−0.271 and −0.4995 and −0.524
same,% Infection (5 uM),SARS-CoV-2; 5 uM,14.06% and 10.49% and 11.77%
same,Normalized Infection (5 uM),SARS-CoV-2; 5 uM,0.9128 and 0.681 and 0.7644
same,log2FC Infection (5 uM),SARS-CoV-2; 5 uM,−0.1316 and −0.5544 and −0.3876
same,HIT,"SARS-CoV-2; overall, 1 or 5 uM",Yes
"CC1(C)S[C@@H]2[C@H](NC(=O)[C@H](N)c3ccccc3)C(=O)N2[C@H]1C(=O)O [Ampicillin, ampicillin]","HIT (2 Std, 1 uM)",SARS-CoV-2; 1 uM,HIT
same,Average Infection (1 uM),SARS-CoV-2; [2],−0.9564
same,Average Infection (5 uM),SARS-CoV-2; [3],−0.0334
same,activity at 1 µM,SARS-CoV-2,48.2%
same,activity at 5 µM,SARS-CoV-2,102%
same,HIT,"SARS-CoV-2; overall, 1 or 5 uM",Yes
same,Toxic (1 uM),[1],0 (non-toxic (Normalized Cell number>0.65)
same,Toxic (5 uM),[1],0 (non-toxic (Normalized Cell number>0.65)
same,Average Cell Number (1 uM),[1],0.694
same,Cell Number (1 uM),[1],3959 and 4296 and 3945
same,Normalized Cell Number (1 uM),[1],0.6756 and 0.7331 and 0.6732
same,Average Cell Number (5 uM),[1],0.9658
same,Cell Number (5 uM),[1],5481 and 5912 and 5777
same,Normalized Cell Number (5 uM),[1],0.9249 and 0.9976 and 0.9748
"Nc1cc(C(F)(F)F)c(-c2nc(N3CCOCC3)nc(N3CCOCC3)n2)cn1 [Bimiralisib, bimiralisib]","HIT (2 Std, 1 uM)",SARS-CoV-2; 1 uM,HIT
same,Average Infection (1 uM),SARS-CoV-2; [2],−1.45
same,"HIT (2 Stdv, 5 uM)",SARS-CoV-2; 5 uM,HIT
same,Average Infection (5 uM),SARS-CoV-2; [3],−4.123
same,activity at 5 µM,SARS-CoV-2,5.11%
same,HIT,"SARS-CoV-2; overall, 1 or 5 uM",Yes
same,Toxic (1 uM),[1],0 (non-toxic (Normalized Cell number>0.65)
same,Average Cell Number (1 uM),[1],0.6927
same,Cell Number (1 uM),[1],3839 and 4405 and 3934
same,Normalized Cell Number (1 uM),[1],0.6551 and 0.7517 and 0.6713
same,Average Cell Number (5 uM),[1],0.4637
same,Cell Number (5 uM),[1],2795 and 2791 and 2658
same,Normalized Cell Number (5 uM),[1],0.4716 and 0.471 and 0.4485
"c1cc(OCCN2CCCCC2)cc(-c2n[nH]c3ccc(-c4nc[nH]n4)cc23)c1 [CC-401, cc-401]",Average Infection (1 uM),SARS-CoV-2; [2],−0.3224
same,"HIT (2 Stdv, 5 uM)",SARS-CoV-2; 5 uM,HIT
same,Average Infection (5 uM),SARS-CoV-2; [3],−0.828
same,activity at 1 µM,SARS-CoV-2,86.2%
same,activity at 5 µM,SARS-CoV-2,58.4%
same,HIT,"SARS-CoV-2; overall, 1 or 5 uM",Yes
same,Toxic (1 uM),[1],0 (non-toxic (Normalized Cell number>0.65)
same,Toxic (5 uM),[1],0 (non-toxic (Normalized Cell number>0.65)
same,Average Cell Number (1 uM),[1],0.8485
same,Cell Number (1 uM),[1],4691 and 5161 and 5065
same,Normalized Cell Number (1 uM),[1],0.8005 and 0.8807 and 0.8643
same,Average Cell Number (5 uM),[1],0.8935
same,Cell Number (5 uM),[1],4993 and 5513 and 5380
same,Normalized Cell Number (5 uM),[1],0.8425 and 0.9303 and 0.9078
"CS(=O)(=O)N1CCc2c(-c3cnc(N)nc3)nc(N3CCOCC3)nc21 [CH5132799, ch5132799]","HIT (2 Std, 1 uM)",SARS-CoV-2; 1 uM,HIT
same,Average Infection (1 uM),SARS-CoV-2; [2],−1.059
same,"HIT (2 Stdv, 5 uM)",SARS-CoV-2; 5 uM,HIT
same,Average Infection (5 uM),SARS-CoV-2; [3],−3.565
same,activity at 1 µM,SARS-CoV-2,42.1%
same,activity at 5 µM,SARS-CoV-2,8.27%
same,HIT,"SARS-CoV-2; overall, 1 or 5 uM",Yes
same,Toxic (1 uM),[1],0 (non-toxic (Normalized Cell number>0.65)
same,Average Cell Number (1 uM),[1],0.6597
same,Cell Number (1 uM),[1],4526 and 3593 and 3479
same,Normalized Cell Number (1 uM),[1],0.7724 and 0.6131 and 0.5937
same,Average Cell Number (5 uM),[1],0.5239
same,Cell Number (5 uM),[1],3141 and 3289 and 2884
same,Normalized Cell Number (5 uM),[1],0.53 and 0.555 and 0.4867
"CC(C)(C[C@H]1CN(S(=O)(=O)c2cccc(C(F)(F)F)c2)c2cc(-c3cc(F)cc(OC(F)F)c3)ccc2O1)C(=O)O [Cintirorgon, cintirorgon]","HIT (2 Std, 1 uM)",SARS-CoV-2; 1 uM,HIT
same,Average Infection (1 uM),SARS-CoV-2; [2],−0.8423
same,Average Infection (5 uM),SARS-CoV-2; [3],−0.109
same,activity at 1 µM,SARS-CoV-2,53.8%
same,HIT,"SARS-CoV-2; overall, 1 or 5 uM",Yes
same,Toxic (1 uM),[1],0 (non-toxic (Normalized Cell number>0.65)
same,Toxic (5 uM),[1],0 (non-toxic (Normalized Cell number>0.65)
same,Average Cell Number (1 uM),[1],0.7476
same,Cell Number (1 uM),[1],4247 and 4539 and 4357
same,Normalized Cell Number (1 uM),[1],0.7247 and 0.7746 and 0.7435
same,Average Cell Number (5 uM),[1],0.9874
same,Cell Number (5 uM),[1],5894 and 6058 and 5603
same,Normalized Cell Number (5 uM),[1],0.9946 and 1.022 and 0.9455
"C[N+]12CCC(CC1)C(OC(=O)C(O)(c1ccccc1)c1ccccc1)C2 (centres unmarked) [Clidinium, clidinium]",Average Infection (1 uM),SARS-CoV-2,−0.7651
same,Average Infection (5 uM),SARS-CoV-2,−0.1069
same,"HIT (2 Std, 1 uM)",SARS-CoV-2; 1 uM,HIT
same,HIT,"SARS-CoV-2; overall, 1 or 5 uM",Yes
same,Toxic (1 uM),[1],0 (non-toxic (Normalized Cell number>0.65)
same,Toxic (5 uM),[1],0 (non-toxic (Normalized Cell number>0.65)
same,Average Cell Number (1 uM),[1],0.6841
same,Cell Number (1 uM),[1],3871 and 4256 and 3900
same,Normalized Cell Number (1 uM),[1],0.6606 and 0.7263 and 0.6655
same,Average Cell Number (5 uM),[1],0.9985
same,Cell Number (5 uM),[1],5211 and 6271 and 6270
same,Normalized Cell Number (5 uM),[1],0.8793 and 1.058 (2×)
"CC(C)C[C@@H](NC(=O)[C@H](Cc1ccccc1)NC(=O)CNC(=O)[C@@H](C)NC(=O)[C@@H](N)Cc1ccc(O)cc1)C(=O)O [DADLE, L-Tyrosyl-D-alanylglycyl-L-phenylalanyl-D-leucine]",Average Infection (1 uM),SARS-CoV-2,−0.6223
same,Average Infection (5 uM),SARS-CoV-2,−0.2501
same,"HIT (2 Std, 1 uM)",SARS-CoV-2; 1 uM,HIT
same,% Infection (1 uM),SARS-CoV-2; 1 uM,17.22% and 16.52% and 17.46%
same,Normalized Infection (1 uM),SARS-CoV-2; 1 uM,0.6557 and 0.6291 and 0.6645
same,log2FC Infection (1 uM),SARS-CoV-2; 1 uM,−0.6088 and −0.6686 and −0.5896
same,% Infection (5 uM),SARS-CoV-2; 5 uM,13.22% and 10.81% and 15.19%
same,Normalized Infection (5 uM),SARS-CoV-2; 5 uM,0.8586 and 0.7017 and 0.9867
same,log2FC Infection (5 uM),SARS-CoV-2; 5 uM,−0.22 and −0.511 and −0.01933
same,HIT,"SARS-CoV-2; overall, 1 or 5 uM",Yes
same,Toxic (1 uM),[1],0 (non-toxic (Normalized Cell number>0.65)
same,Toxic (5 uM),[1],0 (non-toxic (Normalized Cell number>0.65)
same,Average Cell Number (1 uM),[1],0.7534
same,Cell Number (1 uM),[1],4511 and 4466 and 4268
same,Normalized Cell Number (1 uM),[1],0.7698 and 0.7621 and 0.7283
same,Average Cell Number (5 uM),[1],0.9869
same,Cell Number (5 uM),[1],5991 and 5664 and 5891
same,Normalized Cell Number (5 uM),[1],1.011 and 0.9558 and 0.9941
"CCOC(=O)N1CCC(=C2c3ccc(Cl)cc3CCc3cccnc32)CC1 [Loratadine, loratadine]",HIT,SARS-CoV-2,Yes
same,"HIT (2 Stdv, 5 uM)",SARS-CoV-2,HIT
same,Average Infection (1 uM),SARS-CoV-2; [2],−0.3263
same,Average Infection (5 uM),SARS-CoV-2; [3],−1.089
same,activity at 1 µM,SARS-CoV-2,81.8%
same,activity at 5 µM,SARS-CoV-2,54%
"Cc1ccccc1-n1c(Cn2nc(-c3cccc(O)c3)c3c(N)ncnc32)nc2cccc(C)c2c1=O [PIK-294, pik-294]",Toxic (1 uM),[1],0 (non-toxic (Normalized Cell number>0.65)
same,Toxic (5 uM),[1],0 (non-toxic (Normalized Cell number>0.65)
same,Average Cell Number (1 uM),[1],0.7115
same,Cell Number (1 uM),[1],4346 and 3954 and 4208
same,Normalized Cell Number (1 uM),[1],0.7416 and 0.6747 and 0.7181
same,Average Cell Number (5 uM),[1],0.9038
same,Cell Number (5 uM),[1],5244 and 5589 and 5236
same,Normalized Cell Number (5 uM),[1],0.8849 and 0.9431 and 0.8835
